Test results taken from PMC12236907, “A Natural Depsipeptide Antibiotic that Targets the E site of the Bacterial Ribosome” (Research Square, 2025).
Entries after “also recorded” stand apart in the source; their conditions may differ. Where a SMILES comes first, the peptide text is derived from it. Bridges are numbered along the chain shown (N, C = ends). [ ]: non-standard residue; d: D form. dOrn = NCCC[C@@H](N)C(=O)O

How the values were obtained:
[1] = test system: E. coli; experiment: Antimicrobial activity, E. coli; assay type: cell-based, Escherichia coli
[2] = test system: K. pneumoniae C1559; experiment: Time-dependent killing assay, K. pneumoniae; assay type: cell-based, Klebsiella pneumoniae; conditions: K. pneumoniae C1559, MHB, 5×MIC (80 μg/ml), 37°C, 0-24 h; mean of three biological replicates
Procedure: E. coli BW25113 and Klebsiella pneumoniae C1559 were grown overnight in 5 ml of cation-adjusted Mueller-Hinton Broth. The cultures were then inoculated into fresh medium to achieve an OD600 of 0.1, corresponding to a concentration of 10^8 CFU/ml. […] Samples were taken at 0 h, 3 h, 6 h, and 24 h post-incubation, plated on MHA plates, and incubated for 20–24 hours at 37°C. Colony counts were used to determine the log reduction in CFU/ml, comparing treated strains to untreated control samples.

[3] = test system: multi-drug-resistant Enterobacteriaceae
[4] = test system: E. coli ribosome; experiment: In vitro translocation assay; assay type: biochemical; conditions: mRNA MFK; 50 μM MKM or 250 μM negamycin; 1 μM E. coli ribosomes
Procedure: In vitro translocation assay was carried out using the model mRNA MFK (Supplementary Table 7) as described in the reference. The mRNA was prepared by in vitro transcription of a PCR product amplified using the primers MF_F1, MF_F2, and MF_R (Supplementary Table 6). A 4.5 μl reaction containing 1 μM E. coli ribosomes, 0.5 μM mRNA, 1 μM tRNAi^Met, 0.5 μM radiolabelled NV1 primer (Supplementary Table 6), 2 U/μl RiboLock RNase Inhibitor (Thermo), and antibiotic tested (50 μM MKM or 250 μM negamycin) in Pure System Buffer (PSB; 9 mM Mg(CH3COO)2, 5 mM K3PO4, 95 mM potassium glutamate, 5 mM NH4Cl, 0.5 mM CaCl2, 1 mM spermidine, 8 mM putrescine, 1 mM dithiothreitol, pH 7.3)[87] was incubated for 20 min at 37°C. Then N-acetyl-Phe-N-tRNAPhe, in which amino acid is attached to the tRNA’s A3’ hydroxyl via an amide bond, was added to the final concentration of 2 μM followed by 10 min incubation at 37°C. After addition of the E. coli EF-G and GTP to the final concentrations of 0.2 μM and 533 μM, respectively and incubation for 5 min at 30°C, 1 μl of the mixture of AMV reverse transcriptase (Roche) and dNTPs (2.1 U/μl AMV RT and 2 mM dNTPs in PSB) was added, and the reactions were incubated for another 5 min at 30°C. […]

[5] = test system: K. pneumoniae ATCC 33495 and C1559; experiment: C. elegans – K. pneumoniae in vivo antibiotic activity assay (survival); parameters: species or system K. pneumoniae in Caenorhabditis elegans
Procedure: A C. elegans double mutant strain, AU37 (glp-4(bn2);sek-1(km4)), was used for this assay due to its enhanced pathogen infection sensitivity and temperature-sensitive sterility. The infection protocol was carried out as previously described, with slight modifications to accommodate our experimental conditions. Standard C. elegans media and protocols were used for the maintenance and growth of worms. To summarize, eggs were collected from gravid adult worms by bleaching and incubated on solid agar plates at 25 °C for 48 hours, until early adulthood. Worms were thoroughly washed with M9 buffer and transferred onto LB agar plates containing lawns of infective K. pneumoniae and incubated for another 24 hours. Worms were then washed from plates and resuspended in M9 to an approximate 2 worm per microlitre concentration. A survival assay was conducted in a 96-well plate with experimental wells containing 15 μl of worms, 80 μl S-basal (5.85 g NaCl, 1 g K2HPO4, 6 g KH2PO4, 1 ml cholesterol (5 mg/ml in ethanol), H2O to 1 litre. Sterilize by autoclaving), and 5 μl of test compound. Plates were sealed with a porous film and incubated at 25°C for a total of 7 days. The number of dead worms were counted every 24 hours to generate a Kaplan-Meier survival curve.

[6] = test system: bacterial ribosome; experiment: Toeprinting analysis of MKM-induced ribosome stalling; assay type: biochemical, E. coli
Procedure: Toeprinting analysis was carried out in the E. coli in vitro transcription-translation system assembled from the purified components (PURExpress, NEB). Toeprinting was carried out using either ^32P-radiolabeled or fluorescently labeled reverse transcription primers, following the procedures described previously[21],[26],[27].
Reactions either contained no antibiotic or were supplemented with 50 μM retapamulin or varying concentrations of MKM. The inhibitors of aminoacyl-tRNA synthetases (mupirocin, Gly-AMS (MedChemExpress: Cat. No.: HY-108940), or Arg-AMS (MedChemExpress, Cat. No.: HY-112862)) were added to the final concentrations of 50 μM to stall translation at downstream “catch codons” (Ile, Gly, or Arg, respectively). The gltX template was prepared by amplifying the gltX gene from E. coli BW25113 genomic DNA using the primers T7_gltX_F and gltX_NV1_R (Supplementary Table 6). The yrbA_wt template and its derivatives containing 3-Ser or 3-Thr codons were generated by four-primer PCRs using the primers T7_IR_AUG_F, yrbA_wt_F / yrbA_TTT_F / yrbA_SSS_F, yrbA_wt_R/yrbA_Ile_catch_R, and posT-NV1_R (Supplementary Table 6).
Fluorescently labeled reactions were carried out on the ermBL toeprint mRNA template. The template was generated by PCR of two overlapping 77-nt- and 78-nt-long primers T7_ermBL_F and ermBL_UGA_R (Supplementary Table 6). Reactions were assembled in a 6 μl volume with 30 ng of the ermBL mRNA template and incubated for 15 min at 37 °C. Reverse transcription was carried out using AMV RT and primer NV*1-Alexa 647 (Supplementary Table 6) for 20 min at 37 °C. Reactions were terminated with 1 μl of 5 M NaOH, neutralized with 0.7 μl of 25% HCl, and nucleotide removal was performed with the QIAquick Nucleotide Removal Kit (Qiagen). The samples were dried under vacuum for 2 hours at 60 °C for subsequent gel electrophoresis. The 6% acrylamide gels were scanned on a Typhoon scanner (GE Healthcare). The sequences of all toeprinting templates used in the study can be found in Supplementary Table 7.

## C[C@@H](O)[C@@H]1NC(=O)[C@@H](CCCNC(=N)N)NC(=O)[C@@H](CCCNC(=N)N)NC(=O)[C@@H](CC(N)=O)NC(=O)[C@@H](NC(=O)[C@@H](Cc2ccccc2)NC(=O)[C@@H](CCCN)NC(=O)[C@H](N)CCCNC(=N)N)[C@@H](C)OC(=O)[C@H](Cc2c[nH]cn2)NC1=O [MKM, manikomycin A] (H-[dR][dOrn][dF]T[dN][dR][dR]TH; ester 4-C)
[1]
  antimicrobial activity: selective antimicrobial activity
[2]
  time-kill effect: bactericidal
[3]
  killing of multi-drug-resistant Enterobacteriaceae: can kill
[4]
  inhibition of EF-G-dependent translocation: notably inhibited
[5]; MKM 64 μg/ml or polymyxin B 25 μg/ml, 6 days, vs DMSO, Log-rank (Mantel–Cox) test
  survival benefit in C. elegans (in words): significantly improved survival; also recorded: markedly improved survival
[5]; MKM 64 μg/ml, both infection models (ATCC 33495 and C1559), DMSO ~10% (ATCC 33495), ~30% (C1559), n > 60 worms per group
  nematodes alive by day 6: 55–60%
[6]; E. coli in vitro protein synthesis system, ermBL template
  ribosome stalling, ermBL mRNA: ribosomes stall primarily on the third codon; also recorded: stalled the ribosome on the third codon
[6]; gltX template, Gly-AMS in all reactions
  ribosome stalling, gltX template: arrested some ribosomes at the start codon, a notable fraction of them became arrested at several specific sites along the mRNA
[6]; yrbA with three Ser codons after start codon, high concentrations of MKM
  ribosome stalling, yrbA-SSS template: no ribosomes pass downstream of the start codon
[6]; yrbA with three Thr codons after start codon
  ribosome stalling, yrbA-TTT template: a fraction of ribosomes was able to move through the Thr codons
